The source of these data is patent US20070197559A1, “Aryl substituted purine analogues” (priority 2004, published 2007).

One test addresses T1, human capsaicin receptor (Homo sapiens, UniProt Q8NER1).
T1 construct: transfected with the pBK-CMV expression construct encoding the full length human capsaicin receptor; expressed in transfected cells
In words: Calcium mobilization assay, determination of antagonist activity. The format is cell-based. Conditions: cells expressing human capsaicin receptor, capsaicin-induced fluorescence response, Example 6. The protocol:
A cDNA encoding full length human capsaicin receptor (SEQ ID NO:1, 2 or 3 of U.S. Pat. No. 6,482,611) is subcloned in the plasmid pBK-CMV (Stratagene, La Jolla, Calif.) for recombinant expression in mammalian cells.
Human embryonic kidney (HEK293) cells are transfected with the pBK-CMV expression construct encoding the full length human capsaicin receptor using standard methods. The transfected cells are selected for two weeks in media containing G418 (400 μg/ml) to obtain a pool of stably transfected cells. Independent clones are isolated from this pool by limiting dilution to obtain clonal stable cell lines for use in subsequent experiments.
Cells transfected with expression plasmids (as described in Example 4) and thereby expressing human capsaicin receptor are seeded and grown to 70-90% confluency in FALCON black-walled, clear-bottomed 96-well plates (#3904, BECTON-DICKINSON, Franklin Lakes, N.J.). The culture medium is emptied from the 96 well plates and FLUO-3 AM calcium sensitive dye (Molecular Probes, Eugene, Oreg.) is added to each well (dye solution: 1 mg FLUO-3 AM, 440 μL DMSO and […] pluronic acid in DMSO, diluted 1:250 in Krebs-Ringer HEPES (KRH) buffer (25 mM HEPES, 5 mM KCl, 0.96 mM NaH2PO4, 1 mM MgSO4, 2 mM CaCl2, 5 mM glucose, 1 mM probenecid, pH 7.4), 50 μl diluted solution per well). Plates are covered with aluminum foil and incubated at 37° C. for 1-2 hours in an environment containing 5% CO2. After the incubation, the dye is emptied from the plates, and the cells are washed once with KRH buffer, and resuspended in KRH buffer.
To measure the ability of a test compound to agonize or antagonize a calcium mobilization response in cells expressing capsaicin receptors to capsaicin or other vanilloid agonist, the EC50 of the agonist capsaicin is first determined. An additional 20 μl of KRH buffer and 1 μl DMSO is added to each well of cells, prepared as described above. 100 μl capsaicin in KRH buffer is automatically transferred by the FLIPR instrument to each well. Capsaicin-induced calcium mobilization is monitored using either FLUOROSKAN ASCENT (Labsystems; Franklin, Mass.) or FLIPR (fluorometric imaging plate reader system; Molecular Devices, Sunnyvale, Calif.) instruments. Data obtained between 30 and 60 seconds after agonist application are used to generate an 8-point concentration response curve, with final capsaicin concentrations of 1 nM to 3 μM. KALEIDAGRAPH software (Synergy Software, Reading, Pa.) is used to fit the data to the equation: y=a*(1/(1+(b/x)^c)) to determine the 50% excitatory concentration (EC50) for the response. In this equation, y is the maximum fluorescence signal, x is the concentration of the agonist or antagonist (in this case, capsaicin), a is the Emax, b corresponds to the EC50 value and c is the Hill coefficient. Determination of Agonist Activity
Test compounds are dissolved in DMSO, diluted in 20 μl KRH buffer so that the final concentration of test compounds in the assay well is between 1 μM and 5 μM, and added to cells prepared as described above. The 96 well plates containing prepared cells and test compounds are incubated in the dark, at room temperature for 0.5 to 6 hours. It is important that the incubation not continue beyond 6 hours. Just prior to determining the fluorescence response, 100 μl capsaicin in KRH buffer at twice the EC50 concentration determined as described above is automatically added by the FLIPR instrument to each well of the 96 well plate for a final sample volume of 200 μl and a final capsaicin concentration equal to the EC50. The final concentration of test compounds in the assay wells is between 1 μM and 5 μM. […] The concentration of antagonist required to provide a 50% decrease, relative to the response observed in the presence of capsaicin and without antagonist, is the IC50 for the antagonist, and is preferably below 1 micromolar, 100 nanomolar, 10 nanomolar or 1 nanomolar.

Another test has as its target vanilloid receptor (VR) (Homo sapiens, UniProt Q8NER1). Conditions: typical value, background; read-out: Ki value (binding to VR); cited from earlier work.

The structures appear in SMILES notation. pIC50, pKi: −log10 of the molar value. Where only a bound is given, the exact number is not on record here.

T1 sequence (Q8NER1 whole entry): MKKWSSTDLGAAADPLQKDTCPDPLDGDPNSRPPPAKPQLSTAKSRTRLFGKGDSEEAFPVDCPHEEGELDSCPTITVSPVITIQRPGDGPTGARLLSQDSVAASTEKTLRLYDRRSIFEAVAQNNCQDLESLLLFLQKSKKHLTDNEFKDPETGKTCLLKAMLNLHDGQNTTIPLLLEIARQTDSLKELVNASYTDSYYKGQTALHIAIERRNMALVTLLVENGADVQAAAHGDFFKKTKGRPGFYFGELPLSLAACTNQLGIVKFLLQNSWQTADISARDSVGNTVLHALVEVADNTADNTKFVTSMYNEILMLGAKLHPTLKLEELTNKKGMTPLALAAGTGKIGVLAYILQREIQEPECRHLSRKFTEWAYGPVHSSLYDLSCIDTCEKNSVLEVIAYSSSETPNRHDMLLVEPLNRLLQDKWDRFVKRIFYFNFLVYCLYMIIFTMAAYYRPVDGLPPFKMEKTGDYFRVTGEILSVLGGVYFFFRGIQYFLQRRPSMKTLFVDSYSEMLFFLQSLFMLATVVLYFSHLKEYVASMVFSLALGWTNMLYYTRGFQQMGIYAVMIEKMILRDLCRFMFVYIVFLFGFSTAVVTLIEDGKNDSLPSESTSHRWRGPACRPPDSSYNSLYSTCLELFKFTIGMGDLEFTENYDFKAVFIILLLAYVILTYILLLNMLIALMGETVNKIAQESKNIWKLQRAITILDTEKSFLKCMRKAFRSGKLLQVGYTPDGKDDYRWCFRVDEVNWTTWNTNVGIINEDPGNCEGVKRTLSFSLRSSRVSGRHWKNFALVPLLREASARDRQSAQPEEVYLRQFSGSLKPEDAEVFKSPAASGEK
Sequence of vanilloid receptor (VR) (Q8NER1 whole entry): as above

Regarding `CC(C)(C)c1ccc(Nc2ncnc3c2ncn3Cc2ccccc2Cl)cc1` [(4-tert-Butyl-phenyl)-[9-(2-chloro-benzyl)-9H-purin-6-yl]-amine], the pIC50 (as a rule, the IC50 on a negative log10 scale, so that one unit is a factor of ten) at human capsaicin receptor is at least 6.00.
Consider `O=S(=O)(c1ccc(Nc2ncnc3c2cnn3-c2ccccc2Cl)cc1)C(F)(F)F` [[1-(2-Chloro-phenyl)-1H-pyrazolo[3,4-d]pyrimidin-4-yl]-(4-trifluoromethanesulfonyl-phenyl)-amine], for which the negative logarithm of the IC50 (pIC50) on human capsaicin receptor is at least 6.00.
With `CC(C)COCc1nc(Nc2ccc(C(C)(C)C#N)cc2)c2cnn(-c3ccccc3Cl)c2n1` [2-{4-[1-(2-Chloro-phenyl)-6-isobutoxymethyl-1H-pyrazolo[3,4-d]pyrimidin-4-ylamino]-phenyl}-2-methyl-propionitrile], at human capsaicin receptor, the pIC50 was at least 6.00.
With `CC(C)(C)c1ccc(Nc2ncnc3c2ncn3-c2ccccc2Cl)cc1` [(4-tert-Butyl-phenyl)-[9-(2-chloro-phenyl)-9H-purin-6-yl]-amine], at human capsaicin receptor, the pIC50 was at least 6.00.
Consider `FC(F)(F)c1ccc(Nc2ncnc3c2ncn3Cc2ccccc2Cl)cc1` [[9-(2-Chloro-benzyl)-9H-purin-6-yl]-(4-trifluoromethyl-phenyl)-amine], for which the negative logarithm of the IC50 (pIC50) at human capsaicin receptor is at least 6.00.
Still for that read-out and setting: the figure for `FC(F)(F)c1ccc(Nc2ncnc3c2cnn3-c2ncccc2Cl)cc1` [[1-(3-Chloro-pyridin-2-yl)-1H-pyrazolo[3,4-d]pyrimidin-4-yl]-(4-trifluoromethyl-phenyl)-amine] is at least 6.00.
`CC(C)(C)c1ccc(Nc2ncnc3c2ncn3-c2cccc(Cl)c2)cc1` [(4-tert-Butyl-phenyl)-[9-(3-chloro-phenyl)-9H-purin-6-yl]-amine]: the negative logarithm of the IC50 (pIC50) on human capsaicin receptor was at least 6.00.
On the same count and under the same terms, the figure for `N#Cc1ccc(Nc2ncnc3c2ncn3-c2cccc(Cl)c2)cc1` [4-[9-(3-Chloro-phenyl)-9H-purin-6-ylamino]-benzonitrile] is at least 6.00.
Same read-out and setting: the figure for `Clc1ccc(Nc2ncnc3c2ncn3-c2cccc(Cl)c2)cc1` [(4-Chloro-phenyl)-[9-(3-chloro-phenyl)-9H-purin-6-yl]-amine] is at least 6.00; for `CC(C)(C)c1ccc(Nc2ncnc3c2cnn3-c2ncccc2Cl)cc1` [(4-tert-Butyl-phenyl)-[1-(3-chloro-pyridin-2-yl)-1H-pyrazolo[3,4-d]pyrimidin-4-yl]-amine] it is at least 6.00.
As for `CC(C)COCc1nc(Nc2ccc(C(C)(C)C)cc2)c2cnn(-c3ccccc3Cl)c2n1` [(4-tert-Butyl-phenyl)-[1-(2-chloro-phenyl)-6-isobutoxymethyl-1H-pyrazolo[3,4-d]pyrimidin-4-yl]-amine], the pIC50 at human capsaicin receptor is at least 6.00.
Take `CC(C)(C#N)c1ccc(Nc2ncnc3c2ncn3-c2cccc(Cl)c2)cc1` [2-{4-[9-(3-Chloro-phenyl)-9H-purin-6-ylamino]-phenyl}-2-methyl-propionitrile]: on human capsaicin receptor, the negative-log IC50 (pIC50) is at least 6.00.
In the case of `Cc1nc2c(Nc3ccc(C(C)(C)C)cc3)ncnc2n1-c1ccccc1Cl` [(4-tert-Butyl-phenyl)-[9-(2-chloro-phenyl)-8-methyl-9H-purin-6-yl]amine], the pIC50 on human capsaicin receptor was at least 6.00.
Take `FC(F)(F)c1ccc(Nc2ncnc3c2ncn3-c2cccc(Cl)c2)cc1` [[9-(3-Chloro-phenyl)-9H-purin-6-yl]-(4-trifluoromethyl-phenyl)-amine]: at human capsaicin receptor, the pIC50 is at least 6.00.
As to `Cl.Cl.Cl.Cl.Cl.Cl.N.N.N.N.N.N.N.N.N.N.N.N.N.N.[O-2].[O-2].[Ru+3].[Ru+3].[Ru+4]` [ruthenium red], at vanilloid receptor (VR), the pKi (usually the Ki on a negative log10 scale, so that one unit is a factor of ten) was at most 3.85.
On to `C[C@@H]1CN(Cc2nc(Nc3ccc(C(F)(F)F)cc3)c3cnn(-c4ccccc4Cl)c3n2)C[C@H](C)O1` [[1-(2-Chloro-phenyl)-6-(2,6-dimethyl-morpholin-4-ylmethyl)-1H-pyrazolo[3,4-d]pyrimidin-4-yl]-(4-trifluoromethyl-phenyl)-amine], for which the pIC50 on human capsaicin receptor is at least 6.00.
Regarding `C[C@@H]1CN(Cc2nc(Nc3ccc(C(C)(C)C)cc3)c3cnn(-c4ccccc4Cl)c3n2)C[C@H](C)O1` [(4-tert-Butyl-phenyl)-[1-(2-chloro-phenyl)-6-(2,6-dimethyl-morpholin-4-ylmethyl)-1H-pyrazolo[3,4-d]pyrimidin-4-yl]-amine], the negative logarithm of the IC50 (pIC50) on human capsaicin receptor is at least 6.00.
The same measure, in the same setting: the figure for `CC(C)COCc1nc(Nc2ccc(C(C)C)cc2)c2cnn(-c3ccccc3Cl)c2n1` [[1-(2-Chloro-phenyl)-6-isobutoxymethyl-1H-pyrazolo[3,4-d]pyrimidin-4-yl]-(4-isopropyl-phenyl)-amine] is at least 6.00.
With `CC(C)COCc1nc(Nc2ccc(C(F)(F)F)cc2)c2cnn(-c3ccccc3Cl)c2n1` [[1-(2-Chloro-phenyl)-6-isobutoxymethyl-1H-pyrazolo[3,4-d]pyrimidin-4-yl]-(4-trifluoromethyl-phenyl)-amine], at human capsaicin receptor, the negative-log IC50 (pIC50) was at least 6.00.
